Data: publication PMC7515950, “Physiologically based pharmacokinetic modeling to assess metabolic drug–drug interaction risks and inform the drug label for fedratinib” (Cancer Chemotherapy and Pharmacology, 2020)
Like-named read-outs stand apart in the source and are kept apart here.

What was measured:
[1] = Human 14C mass balance and metabolic profiling (BEX12257, MEH0082); assay type: in vivo; details: for fa (fraction of absorbed dose): estimated from mass balance and metabolic profiling, BEX12257 and MEH0082; for CL renal: estimated from BEX12257, MEH0082 with CL/F of 33.3 L/h, read-out: CLR (renal clearance) (converted)
Method: The first-order absorption ka value was estimated to be ~0.22 h^-1 based on compartmental modeling of mean PK data obtained from healthy subjects given single doses of 500 mg fedratinib (see Table 1 in Supplemental Material SM 2). The fa value was estimated based on data obtained from the mass balance and metabolic profiling studies conducted in healthy subjects. By combining the estimated excretion percentages of the parent compound in urine, feces, and bile, the unabsorbed dose was estimated to be ~35% and thus fraction of absorption (fa) was estimated to be ~0.65 (see Figure 2 and “Excretion Parameters” subsection).
Following the normalization, excretion percentages of fedratinib were estimated to be ~5% and ~37% of the administered dose in urine and feces, respectively.

OCT1 = biological target: T1, OCT1 (Homo sapiens, UniProt O15245); assay: OCT1 inhibition, CHO-hOCT1 cells (TRI0013); assay type: in vitro ADME
T1 construct: expressed in transfected cells; host or cells: CHO^Fi-hOCT1
T1 sequence (O15245 1-554): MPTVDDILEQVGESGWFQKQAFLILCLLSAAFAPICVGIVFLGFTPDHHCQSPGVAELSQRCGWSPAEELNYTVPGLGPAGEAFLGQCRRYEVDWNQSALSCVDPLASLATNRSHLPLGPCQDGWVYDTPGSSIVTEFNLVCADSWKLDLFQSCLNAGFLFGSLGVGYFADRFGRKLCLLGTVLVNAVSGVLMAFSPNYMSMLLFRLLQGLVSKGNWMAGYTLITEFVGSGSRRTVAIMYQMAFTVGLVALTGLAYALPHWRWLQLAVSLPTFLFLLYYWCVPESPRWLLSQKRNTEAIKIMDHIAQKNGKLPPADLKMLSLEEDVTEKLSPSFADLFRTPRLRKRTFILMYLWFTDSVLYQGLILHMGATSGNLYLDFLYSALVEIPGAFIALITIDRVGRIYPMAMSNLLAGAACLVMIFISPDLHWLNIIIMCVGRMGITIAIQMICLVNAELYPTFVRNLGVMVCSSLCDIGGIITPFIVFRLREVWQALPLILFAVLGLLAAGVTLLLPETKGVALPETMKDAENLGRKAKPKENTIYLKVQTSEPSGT
Source text: (§1) The reported IC50 values were converted to Ki values using the Cheng-Prusoff equation [10]:
(§2) The transporter inhibition parameters (Ki) for fedratinib were derived from the experimentally determined IC50 values using the Cheng-Prusoff equation, i.e., Ki = IC50/(1+[S]/Km) with the substrate concentrations ([S]) reported in the experimental studies and the substrate Km values collected from literature, as summarized in Table 13.

CYP3A4 = biological target: T2, CYP3A4 (Homo sapiens, UniProt P08684); assay: CYP reversible and mechanism-based inhibition in human liver microsomes (MIH0887), CYP3A4; assay type: in vitro ADME
T2 construct: from tissue; host or cells: human liver microsomes
T2 sequence (P08684 2-503 limits assumed): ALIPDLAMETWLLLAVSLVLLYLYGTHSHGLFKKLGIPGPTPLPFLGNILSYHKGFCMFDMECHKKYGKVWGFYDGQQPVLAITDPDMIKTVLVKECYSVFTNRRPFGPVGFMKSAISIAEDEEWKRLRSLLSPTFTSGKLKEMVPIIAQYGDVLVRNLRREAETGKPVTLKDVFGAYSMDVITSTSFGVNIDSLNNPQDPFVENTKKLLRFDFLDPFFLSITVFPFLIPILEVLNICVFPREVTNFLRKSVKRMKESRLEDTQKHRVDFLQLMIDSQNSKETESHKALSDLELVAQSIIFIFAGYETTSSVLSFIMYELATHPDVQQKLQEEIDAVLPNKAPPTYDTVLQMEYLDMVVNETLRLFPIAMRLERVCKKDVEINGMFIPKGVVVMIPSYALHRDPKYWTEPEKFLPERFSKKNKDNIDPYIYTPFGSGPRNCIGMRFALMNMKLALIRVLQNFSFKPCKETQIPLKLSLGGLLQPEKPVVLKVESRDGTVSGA
Method: The CYP enzyme reverse inhibition and mechanism-based inhibition (MBI) parameters were estimated in the human liver microsome (HLM) incubation in vitro studies. The reported reversible inhibition parameter (i.e., apparent Ki) values for CYP2C8, CYP2C9, and CYP2D6, along with the MBI parameters (i.e., KI or Kapp and kinact) for CYP2C19 and CYP3A4, were supplied to the PBPK DDI model (see Table 2).

OCT2 = biological target: T3, OCT2 (Homo sapiens, UniProt O15244); assay: OCT2 inhibition, CHO-hOCT2 cells (TRI0013); assay type: in vitro ADME; design: expressed in transfected cells; host or cells: CHO^Fi-hOCT2
T3 sequence (O15244 1-555): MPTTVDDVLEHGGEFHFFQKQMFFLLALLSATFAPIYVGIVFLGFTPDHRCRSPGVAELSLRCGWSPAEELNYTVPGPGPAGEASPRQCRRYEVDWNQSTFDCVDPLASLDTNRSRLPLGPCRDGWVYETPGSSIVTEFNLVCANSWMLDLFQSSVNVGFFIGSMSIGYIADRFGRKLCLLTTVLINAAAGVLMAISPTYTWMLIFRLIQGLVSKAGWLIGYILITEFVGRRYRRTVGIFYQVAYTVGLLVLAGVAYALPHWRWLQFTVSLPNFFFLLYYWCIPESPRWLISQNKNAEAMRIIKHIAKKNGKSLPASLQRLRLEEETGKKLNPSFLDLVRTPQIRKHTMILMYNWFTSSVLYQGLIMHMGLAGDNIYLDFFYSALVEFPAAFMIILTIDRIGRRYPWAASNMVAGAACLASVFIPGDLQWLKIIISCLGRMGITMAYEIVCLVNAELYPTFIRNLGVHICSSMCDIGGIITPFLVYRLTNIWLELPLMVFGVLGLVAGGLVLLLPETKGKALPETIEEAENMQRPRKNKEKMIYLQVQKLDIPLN
Source text: as §1, §2

[2] = human 14C-mass balance, over 0-192/240h
[3] = normalized by total recovered radioactivity

Structure (SMILES): Cc1cnc(Nc2ccc(OCCN3CCCC3)cc2)nc1Nc1cccc(S(=O)(=O)NC(C)(C)C)c1 [Fedratinib]
- unabsorbed dose ([1]; estimated from excretion of parent in urine, feces and bile): ~ 35%
- fa (fraction of absorbed dose) [1]: 0.65
- fa (fraction of absorbed dose) ([1]; listed as fedratinib): 0.650
- parent compound in feces, percent of administered dose [1, 2]: 23.3%
- parent compound in urine, percent of administered dose [1, 2]: 2.9%
- blood plasma ratio ([1]; human, blood and plasma, oral, Study BEX12257, read-out: B/P (blood/plasma concentration ratio)): 0.7
- CL renal ([1]; human, in vivo, oral): ~27.8 mL/min
- CL renal ([1]; human, urine, oral): 27.8 mL/min
- excretion percentage of fedratinib in feces, normalized [1, 3]: ~ 37%
- excretion percentage of fedratinib in urine, normalized [1, 3]: ~ 5%
- total percent activity of administered dose ([1]; over 0-192/240h): 62.7%
- Ki (OCT1; from IC50 by Cheng-Prusoff, probe TEA): 5.59 µM
- IC50 (OCT1; probe TEA 25 μM): 6.06 µM
- Ki (CYP3A4; HLM, assuming Ki = IC50/2): 9.55 µM
- CYP3A4 KI or Kapp (CYP3A4; HLM, mechanism-based inhibition): 1.57 µM
- CYP3A4 KI or Kapp (CYP3A4; HLM, mechanism-based inhibition, listed as fedratinib): 1.570 µM
- kinact (CYP3A4; human, human liver microsomes, HLM, mechanism-based inhibition): 0.000717 s⁻¹
- IC50 (CYP3A4; midazolam as substrate, absence of NADPH during pre-incubation, read-out: CYP3A IC50): 19.1 µM
- Ki (OCT2; from IC50 by Cheng-Prusoff, probe metformin): 0.71 µM
- IC50 (OCT2; probe metformin 25 μM): 0.78 µM
